# In BindingDB's records for doi:10.1016/0960-894X(96)00014-5 (1996):
# Test: Compound was tested for inhibition of chymotrypsin-like protease of proteasome from postmortem human liver and brain
compound,measurement,value
CC(C)CC(NC(=O)C(CCCN=C(N)N[N+](=O)[O-])NC(=O)C(CCCCCCCCC#N)C1CCCC1)B1OC(C)(C)C(C)(C)O1 (stereo not drawn) [Alpha-ketocarbonyl boronic ester derivative],IC50,8 nM
CC(C)CC(C=O)NC(=O)C(CCCN=C(N)N[N+](=O)[O-])NC(=O)C(CCCCCCCCN1C(=O)c2ccccc2C1=O)C1CCCC1 (stereo not drawn) [Alpha-ketocarbonyl derivative],IC50,2 nM
CC(C)CC(NC(=O)C(CCCN=C(N)N[N+](=O)[O-])NC(=O)C(CCCCCCCCC#N)C1CCCC1)C(=O)CCl (stereo not drawn) [Alpha-ketocarbonyl derivative],IC50,> 1000 nM
